“Also recorded” adds a separate entry of the source.

Assay [1] has as its system antibody to HIV-1. Description: EIA of p24 synthetic peptide-BSA conjugates with serum pools and individual sera. The class given is binding, human. The method, then:
(§1) The free peptides or peptide-protein conjugates of Figures 1-13 were initially screened for immunoreactivity by coating each well of polystyrene microtiter EIA plates (Costar, Cambridge, Massachusetts, U.S.A.) with 0.2 ml amounts of concentrations of 5-50 micrograms/ml peptide in Tris buffer, 10 mM, pH 8.0, at 4°C overnight. Peptides or peptide-protein conjugates showing immunoreactivity by EIA were then further diluted for coating to determine the minimal concentrations required that allowed maximal immunoreactivity with antibodies to HIV, and minimal nonspecific reactivity with normal sera. The EIA tests were performed as follows: The coating solution was removed from each well and the wells were blocked at 37°C for 30 minutes with a solution of 50 mM phosphate, 100 mM NaCl, pH 7.4, 1% BSA, 0.5% gelatin. The wells were then aspirated dry with a microtiter plate washer and washed 3 times with a solution of 50 mM phosphate, 100 mM NaCl, .05% Tween 20, (trademark) pH 7.4 (PBST). A 1:101 dilution (in PBST with 1% BSA, 1% NRS) of the primate serum to be tested was then added as 0.2 ml to each washed well and the plates were incubated at 37°C for 30 minutes. The plates were then washed x 3 with PBST, and 0.2 ml amounts of a 1:2000 dilution of goat anti-human (GAH) peroxidase enzyme conjugate (Organon Teknika, Cappel, Melvern, Pennsylvania, U.S.A.) that recognized human IgG, IgA, and IgM were added to each well, and the plates were incubated for 30 minutes at 37°C. The plates were then washed x 3 with PBST and incubated with 0.2 ml/well substrate consisting of 0,1M citric acid pH 5.2, 0.1 mg/ml o-phenylene diamine, 0.01% H₂O₂, at room temperature in the dark for 10 minutes. Reactions were stopped with 50 microliters of 4N H₂SO₄, and the color development was quantitated in a Multiscan plate reader at A₄₉₂. In each series of experiments positive and negative controls were included, and all tests were done in duplicate or quadruplicate. Most peptides and peptide conjugates were initially screened against a 1:101 dilution of pools of HIV positive or HIV negative sera, and the same serum pool was used to allow quantitative comparison of immunoreactivity of different free peptides or peptide-protein conjugates.
Figure 8 illustrates the immunoreactivity and AA sequences of synthetic peptides of the p24 protein of HIV-1, when conjugated to BSA via their C-termini using SMCC, and reacted with a pool of approximately 50 sera from persons containing antibody to HIV-1, or with a pool of approximately 30 sera from individuals devoid of antibody to HIV-1. […] No negative sera (0/85, 0%) reacted, and 17 positive sera (17/98, 17%) were immunoreactive. It has been reported that individuals lose antibodies to p24 during the course of progression from asymptomatic infection to clinical disease and AIDS (Franchini et al., Blood 69:(2):437-441, 1987, and Weber et al., Lancet i:119-122, 1987), which may explain the lower frequency of antibodies to this peptide in the sera tested.

Assay [2] concerns antibodies to HIV-1. In words: EIA of HIV-1 gp41 peptide-protein conjugates against serum pools. The class given is binding, human. Conditions: peptide conjugated via C-terminus to BSA (SMCC), coated at 10 micrograms peptide/ml; 1:101 dilution of HIV+ serum pool; Figure 1. The method, then: as §1
The peptides in Figures 1 and 5 were synthesized as described in Example 1 and conjugated to KLH or BSA as described in Example 2. These peptide-protein conjugates were coated to polystyrene microtiter plates all at a concentration 10 micrograms peptide/ml and evaluated for immunoreactivity as described in Example 3, using a 1:101 dilution of a pool of sera (HIV+/SIV+, respectively) containing antibodies to HIV-1 (Figure 1) or to HIV-2 (Figure 5), as well as pooled serum (HIV-/SIV-, respectively) containing no antibodies to HIV-1 or HIV-2. […] Since sera from patients infected with HIV-2 are relatively unavailable in the United States, the immunoreactivity of HIV-2 synthetic peptides was assessed using serum from macaques infected with SIV, obtained from the University of Washington Primate Center, Seattle, Washington, U.S.A. The AA sequence of SIV is nearly identical to HIV-2 in the region of the peptides synthesized (see Myers et al., Human Retroviruses and AIDS, 1988. A compilation of nucleic acid and amino acid sequences. Los Alamos National Laboratory, Los Alamos, New Mexico, 87545, USA).

Assay [3] concerns SIV/HIV-2 antibodies. In words: EIA of HIV-2 gp32 peptide-protein conjugates against macaque serum pools. Particulars: peptide conjugated via C-terminus to BSA (SMCC), coated at 10 micrograms peptide/ml; 1:101 dilution of SIV+ macaque serum pool; Figure 5. The class given is binding. The method, then: The free peptides or peptide-protein conjugates of Figures 1-13 were initially screened for immunoreactivity by coating each well of polystyrene microtiter EIA plates (Costar, Cambridge, Massachusetts, U.S.A.) with 0.2 ml amounts of concentrations of 5-50 micrograms/ml peptide in Tris buffer, 10 mM, pH 8.0, at 4°C overnight. Peptides or peptide-protein conjugates showing immunoreactivity by EIA were then further diluted for coating to determine the minimal concentrations required that allowed maximal immunoreactivity with antibodies to HIV, and minimal nonspecific reactivity with normal sera. The EIA tests were performed as follows: The coating solution was removed from each well and the wells were blocked at 37°C for 30 minutes with a solution of 50 mM phosphate, 100 mM NaCl, pH 7.4, 1% BSA, 0.5% gelatin. The wells were then aspirated dry with a microtiter plate washer and washed 3 times with a solution of 50 mM phosphate, 100 mM NaCl, .05% Tween 20, (trademark) pH 7.4 (PBST). […] Reactions were stopped with 50 microliters of 4N H₂SO₄, and the color development was quantitated in a Multiscan plate reader at A₄₉₂. […] Most peptides and peptide conjugates were initially screened against a 1:101 dilution of pools of HIV positive or HIV negative sera, and the same serum pool was used to allow quantitative comparison of immunoreactivity of different free peptides or peptide-protein conjugates.
The peptides in Figures 1 and 5 were synthesized as described in Example 1 and conjugated to KLH or BSA as described in Example 2. These peptide-protein conjugates were coated to polystyrene microtiter plates all at a concentration 10 micrograms peptide/ml and evaluated for immunoreactivity as described in Example 3, using a 1:101 dilution of a pool of sera (HIV+/SIV+, respectively) containing antibodies to HIV-1 (Figure 1) or to HIV-2 (Figure 5), as well as pooled serum (HIV-/SIV-, respectively) containing no antibodies to HIV-1 or HIV-2. […]

Assay [4] deals with antibodies to HIV-2. In words: EIA of HIV-2 peptide-BSA conjugates with macaque sera. Format: binding. Particulars: macaque sera containing or not containing antibodies to HIV-2, Figure 7. The method, then:
The synthetic peptides of Figures 1-8 were reduced with 10mM DTT, or with immobilized DTT (Reductacryl, Calbiochem, San Diego, California, U.S.A., 10 mg Reductacryl per mg peptide) overnight at 4°C, pH8 in 10mM borate or other buffers depending upon peptide solubility, with gentle mixing. KLH was dissolved at a concentration of 10-30 mg/ml in 10 mM phosphate buffer pH 7.2., and BSA was dissolved at a concentration of 20-80 mg/ml for treatment with heterobifunctional linkers MBS (m-Maleimidobenzoyl-N-hydroxysuccinimide ester), SPDP [N-Succinimidyl 3-(2 pyridyldithio)propionate], or Sulfo-SMCC [Sulfo-Succinimidyl 4(N-maleimidomethyl)-cyclohexane-1-carboxylate]. The heterobifunctional linkers were added to the protein solutions in a molar excess of linker to BSA of 100, or of linker to KLH of 1000. MBS was dissolved in DMF at 10mg/ml, SPDP was dissolved in absolute ethanol at 10mg/ml and each of these was added dropwise with mixing into the protein solution, whereas the Sulfo-SMCC dry powder was dissolved into the protein solution. Each protein-linker mixture was reacted at room temperature for 15 minutes to 1 hour and then free linker was separated from BSA-linker or KLH-linker by gel chromatography with Sephadex G25 using 50mM phosphate, pH 6 for KLH-MBS, 10mM acetate, 100 mM Nacl, pH 4.6 for BSA-SPDP, or 100 mM phosphate, 1 mM EDTA, pH 6.5 for BSA-SMCC. The reduced peptides were separated from DTT by Sephadex G10 column chromatography when soluble DTT was used, or by centrifugation followed by filtration through a 0.22 micron filter when Reductacryl was used. Reduced peptides were combined with linker treated KLH or BSA in molar ratios of 100-1000 peptide/KLH-MBS, 1-50 peptide/BSA-SMCC, and 0.1-10 peptide/BSA-SPDP. Each reduced peptide was added to the linker-treated protein with mixing, overlayed with N₂, and then mixed gently at room temperature for one hour, and then overnight at 4°C. The SMCC-BSA conjugates were further treated with a 1 mM final concentration of mercaptoethylamine for 4 hours, and then dialyzed overnight against 100 volumes of buffer (20mM phosphate, 1 mM EDTA, 0.05% sodium azide, pH 6.5) at 4°C. All other conjugates were adjusted to a final concentration of sodium azide of 0.05%. Optimal molar ratios of peptide/protein for the conjugates were determined by solubility and antigenicity (as evaluated by EIA).
The free peptides or peptide-protein conjugates of Figures 1-13 were initially screened for immunoreactivity by coating each well of polystyrene microtiter EIA plates (Costar, Cambridge, Massachusetts, U.S.A.) with 0.2 ml amounts of concentrations of 5-50 micrograms/ml peptide in Tris buffer, 10 mM, pH 8.0, at 4°C overnight. […]

Assay [5] has as its system antibodies to HIV-1. In words: EIA of peptide-carrier conjugates with individual human sera. Format: binding. Particulars: BSA-SMCC conjugate. How it is done:
as §1
Figure 10A illustrates the immunoreactivity of synthetic natural peptides 2S06 and 2S09 (Figure 1) when conjugated via their C-terminal GC spacer to KLH using the heterobifunctional linker MBS. […] However, the immunoreactivity of many of the positives was low (A₄₉₂ less than 1.0), and some of the negative samples had A₄₉₂ values slightly above 0.20, resulting in minimal discrimination between negatives and positives. This poor discrimination led to a search for an improved carrier protein and/or linker.
Figure 10B illustrates the reactivity of synthetic natural peptide IWGCSGKLICTTAVPGC (2S09) when conjugated through its C-terminus to BSA via the heterobifunctional linker SMCC. […] Improvement in assay performance as compared with results of Example 5A is noted with respect to negative samples having lower A₄₉₂ values, and most positive samples having higher A₄₉₂ values. […] Because of the possibility that some of the low responsiveness might be due to antigenic differences of genetic variants in the region of this epitope, as reported for HIV isolates from Zaire (Gnann et al., Science 237:1346-1349, 1987), the natural sequence variant peptide 5S67 (Figure 3) was synthesized, chemically linked to BSA with SMCC, and tested against the same sera, plus one additional negative serum sample (Figure 10C). […] This instigated a search for unnatural sequence variants of peptide 2S09 that would retain high immunoreactivity with most sera that contained antibodies to HIV-1, and yet retain low reactivity with sera devoid of antibodies to HIV. […]

Setting [6] is: BSA-SMCC conjugate, 85 individual sera without antibodies to HIV-1.
Where [7] appears, read: BSA-SMCC conjugate, 98 individual sera with antibodies to HIV-1.

Consider ALGPAATLEEMMTACGC [5S94], for which, in assay [1] (setting [6]), the “negative sera that reacted” value is 0/85 and the “negative sera that reacted (percent)” value worked out at 0%. Besides, in assay [1] (setting [7]), the positive sera immunoreactive is on record as 17/98 and the “positive sera immunoreactive (percent)” value was 17%. For the same sequence, the “immunoreactivity with serum pools” value in assay [1] (BSA-SMCC conjugates, pool of approximately 50 positive sera and pool of approximately 30 negative sera, Figure 8) is given as “proved to be the immunoreactive peptide; also recorded: significant immunoreactivity”.

Turning to AVERYLKDQQLLGC [2S01], in assay [2], the “immunoreactivity with HIV-1 antibodies” value is “significantly less immunoreactive”.

Consider CSGKLICTTAVPWNAGC [3S51], for which, in assay [2], the “immunoreactivity with HIV-1 antibodies” value is given as “higher reactivity; also recorded: Significant immunoreactivity”.

As for DQARLNSWGCAFRQVC [2S24], in assay [3], the “immunoreactivity with SIV/HIV-2 antibodies” value is on record as “maximally immunoreactive; also recorded: Significant immunoreactivity; also recorded: best immunoreactivity”. Moreover, in assay [4], the “discrimination of positive from negative samples” value (“discrimination of positive” below) is recorded as “most favorable performances”.

Turning to ERYLKDQQLLGIIVGC [2S02], in assay [2], the “immunoreactivity with HIV-1 antibodies” value is “significantly less immunoreactive”.

On to GCSGKLICTTAVPWNGC [2S11], for which the “immunoreactivity with HIV-1 antibodies” value in assay [2] is listed as “higher reactivity; also recorded: Significant immunoreactivity”.

With GKLICTTAVPWNASWGC [3S55], the “immunoreactivity with HIV-1 antibodies” value in assay [2] is on record as “higher reactivity; also recorded: Significant immunoreactivity”.

With “IKQLQARILAVERYLKDQQ [4S24, reference compound]”, in assay [2], the “immunoreactivity with HIV-1 antibodies” value was “lower immunoreactivity”.

Regarding IWGCSGKMICTTAVPGC [5S76], the “immunoreactivity with positive sera” value in assay [5] (98 sera containing antibodies to HIV-1, Figures 10B, 10C, 11) was “strong immunoreactivity with some sera that reacted weakly in Figure 10B”. Moreover, in assay [5] (of 98 positive sera, Figure 11B), the “positive samples giving A492 less than 1.0” value is recorded as “Five”.

As for KDQQLLGIWGCSGKLGC [2S04], the “immunoreactivity with HIV-1 antibodies” value in assay [2] was “Significant immunoreactivity”.

In the case of KLICTTAVPWNASWSGC [2S15], the “immunoreactivity with HIV-1 antibodies” value in assay [2] is given as “higher reactivity; also recorded: Significant immunoreactivity”.

Turning to LGIWGCSGKLICTTAGC [2S07], the “immunoreactivity with HIV-1 antibodies” value in assay [2] is “Significant immunoreactivity”.

Regarding LLGIWGCSGKLICTTGC [2S06], the “immunoreactivity with HIV-1 antibodies” value in assay [2] is listed as “Significant immunoreactivity”.

With QQLLGIWGCSGKLICGC [3S36], the “immunoreactivity with HIV-1 antibodies” value in assay [2] was “Significant immunoreactivity”.

As for “RILAVERYLKDQQLLGIWGCSGKLIC [4S25, reference compound]”, in assay [2], the “immunoreactivity with HIV-1 antibodies” value is recorded as “lower immunoreactivity; also recorded: lower or comparable immunoreactivity; also recorded: Significant immunoreactivity”.

Turning to SGKLICTTAVPWNASGC [2S13], the “immunoreactivity with HIV-1 antibodies” value in assay [2] is on record as “higher reactivity; also recorded: Significant immunoreactivity”.

In the case of SWGCAFRQVCHTSVPGC [5S86], in assay [4], the “discrimination of positive” value was “most favorable performances”.

SWGCAFRQVCHTTVPGC [2S27]: the “immunoreactivity with SIV/HIV-2 antibodies” value in assay [3] is “maximally immunoreactive; also recorded: Significant immunoreactivity; also recorded: best immunoreactivity”. For the same sequence, in assay [4], the “discrimination of positive” value was “most favorable performances”.

Turning to YLKDQQLLGIWGCSGC [2S03], in assay [2], the “immunoreactivity with HIV-1 antibodies” value is “significantly less immunoreactive”.
